# Values of other authors in US20120165520A1, “PROCESS FOR THE SYNTHESIS OF PRODRUGS OF OPIOIDS” (priority 2010, published 2012).
# What was measured:
# [1] = not given; remark: listed apart in the source
Compound,oral bioavailability [%],fraction of an oral dose converted to dihydromorphine [1]
"CCC1(c2cccc(O)c2)CCCCN(C)C1 (centres unmarked) [Meptazinol, meptazinol]",< 10,–
COc1ccc2c3c1O[C@H]1[C@@H](O)CC[C@H]4[C@@H](C2)N(C)CC[C@@]341 [dihydrocodeine],–,less than 2%
